Experimental findings from ChEMBL document CHEMBL4354855 (J Med Chem, 2020) are described below.

Data set [1] in a line: Stability of the compound in GSH assessed as parent compound remaining measured after 24 hrs. The class given is physicochemical. As to conditions: GSH (glutathione); read-out: Stability.
A short description of data set [2]: Lipophilicity, log P of the compound. The class given is physicochemical. As to conditions: octanol/water.
Data set [3] can be described thus: Half life in human plasma. The class given is ADME, cell-free.
Data set [4] can be described thus: Drug level in OFA-1 rat blood at 3 mg/kg, po measured after 5 hrs. The class given is ADME, organism-based. As to conditions: whole blood, read-out: Drug uptake.
Data set [5] can be described thus: Intrinsic clearance in rat liver microsomes. The class given is ADME, Microsome. As to conditions: read-out: CLH. (In general: Liver microsomes are a subcellular fraction often used to study metabolism.)
Data set [6] can be described thus: Oral bioavailability in OFA-1 rat at 10 mg/kg. The class given is ADME, organism-based. As to conditions: in vivo.
Data set [7] is described as follows: Drug level in OFA-1 rat blood at 10 mg/kg, po measured after 5 hrs. The class given is ADME, organism-based. As to conditions: whole blood, read-out: Drug uptake.
Data set [8] is described as follows: Clearance in OFA-1 rat at 3 mg/kg, po. The class given is ADME, organism-based. As to conditions: in vivo.
Data set [9] is described as follows: Tmax in Beagle dog at 1 mg/kg, iv or 3 mg/kg, po. The class given is ADME, organism-based, Canis lupus familiaris. As to conditions: in vivo.
The nature of data set [10]: Dose normalized Cmax in C57BL/6 mouse at 1 mg/kg, iv or 3 mg/kg, po. The class given is ADME, organism-based. As to conditions: in vivo.
Data set [11] in a line: Volume of distribution at steady state in Lewis rat at 1 mg/kg, iv or 3 mg/kg, po. The class given is ADME, organism-based. As to conditions: in vivo, read-out: Vdss.
Data set [12] in a line: Half life in Beagle dog at 1 mg/kg, iv or 3 mg/kg, po. The class given is ADME, organism-based, Canis lupus familiaris. As to conditions: in vivo.
The nature of data set [13]: Oral bioavailability in Lewis rat at 3 mg/kg. The class given is ADME, organism-based. As to conditions: in vivo.
Data set [14] in a line: Intrinsic clearance in mouse liver microsomes. The class given is ADME, Microsome. As to conditions: read-out: CLH.
The nature of data set [15]: Tmax in C57BL/6 mouse at 1 mg/kg, iv or 3 mg/kg, po. The class given is ADME, organism-based. As to conditions: in vivo.
Data set [16] in a line: Clearance in Lewis rat at 1 mg/kg, iv or 3 mg/kg, po. The class given is ADME, organism-based. As to conditions: in vivo.
Data set [17] in a line: Clearance in Beagle dog at 1 mg/kg, iv or 3 mg/kg, po. As to conditions: in vivo. The class given is ADME, organism-based, Canis lupus familiaris.
A short description of data set [18]: Tmax in Lewis rat at 1 mg/kg, iv or 3 mg/kg, po. The class given is ADME, organism-based. As to conditions: in vivo.
Data set [19] in a line: Drug level in OFA-1 rat at 1 mg/kg, po measured after 0.5 hrs. The class given is ADME, organism-based. As to conditions: in vivo, read-out: Drug uptake.
Data set [20] in a line: Drug level in OFA-1 rat at 1 mg/kg, po measured after 5 hrs. The class given is ADME, organism-based. As to conditions: in vivo, read-out: Drug uptake.
Data set [21] is described as follows: Oral bioavailability in C57BL/6 mouse at 3 mg/kg. The class given is ADME, organism-based. As to conditions: in vivo.
The nature of data set [22]: Dose normalized AUC in Lewis rat at 3 mg/kg, po. The class given is ADME, organism-based. As to conditions: in vivo.
Data set [23] in a line: Oral bioavailability in Beagle dog at 3 mg/kg. The class given is ADME, organism-based, Canis lupus familiaris. As to conditions: in vivo.
Data set [24] can be described thus: Thermodynamic solubility of the compound at pH 6.8. As to conditions: buffer, read-out: Therm_solubility. The class given is physicochemical.
Data set [25] is described as follows: Dose normalized Cmax in Beagle dog at 1 mg/kg, iv or 3 mg/kg, po. The class given is ADME, organism-based, Canis lupus familiaris. As to conditions: in vivo.
Data set [26] in a line: Half life in Lewis rat at 1 mg/kg, iv or 3 mg/kg, po. As to conditions: in vivo. The class given is ADME, organism-based.
A short description of data set [27]: Volume of distribution at steady state in Beagle dog at 1 mg/kg, iv or 3 mg/kg, po. The class given is ADME, organism-based, Canis lupus familiaris. As to conditions: in vivo, read-out: Vdss.
Data set [28] in a line: Thermodynamic solubility of the compound at pH 1. The class given is physicochemical. As to conditions: buffer, read-out: Therm_solubility.
Data set [29] in a line: Volume of distribution at steady state in C57BL/6 mouse at 1 mg/kg, iv or 3 mg/kg, po. As to conditions: in vivo, read-out: Vdss. The class given is ADME, organism-based.
The nature of data set [30]: Intrinsic clearance in dog liver microsomes. The class given is ADME, Canis lupus familiaris, Microsome. As to conditions: read-out: CLH.
Data set [31] in a line: Dose normalized Cmax in Lewis rat at 1 mg/kg, iv or 3 mg/kg, po. As to conditions: in vivo. The class given is ADME, organism-based.
Data set [32] in a line: Dose normalized AUC in C57BL/6 mouse at 3 mg/kg, po. The class given is ADME, organism-based. As to conditions: in vivo.
The nature of data set [33]: Half life in C57BL/6 mouse at 1 mg/kg, iv or 3 mg/kg, po. The class given is ADME, organism-based. As to conditions: in vivo.
Data set [34] is described as follows: Clearance in C57BL/6 mouse at 1 mg/kg, iv or 3 mg/kg, po. The class given is ADME, organism-based. As to conditions: in vivo.
A short description of data set [35]: Dose normalized AUC in Beagle dog at 3 mg/kg, po. The class given is ADME, organism-based, Canis lupus familiaris. As to conditions: in vivo.

In the case of `CC#CC(=O)N(C)CCOc1c(N)ncnc1-c1cc(F)cc(NC(=O)c2ccc(C3CC3)cc2F)c1C`, in data set [1], the remaining at 24 h came out at 79.6%.

What is called logP is the decadic logarithm of the partition coefficient of the neutral form, usually between octanol and water. Low values mean a more hydrophilic compound, high ones a more lipophilic compound. What is called half-life is the time needed for the level to fall by half in the phase considered. Take `C=CC(=O)N(CC)CCOc1c(N)ncnc1-c1cc(F)cc(NC(=O)c2ccc(C3CC3)cc2F)c1C`: the logP in [2] amounted to 3.6. Also, the half-life in data set [3] was > 120 min.

In the case of `Cc1c(NC(=O)c2ccc(C3CC3)cc2F)cc(F)cc1-c1ncnc(N)c1OCCN(C)C(=O)/C=C/CN(C)C`, the remaining at 24 h in data set [1] came to 60.8%.

On to `C=CC(=O)N1CCC(Oc2c(N)ncnc2-c2cc(F)cc(NC(=O)c3ccc(C4CC4)cc3F)c2C)CC1`, for which the concentration at 5 h in [4] was found to be 207 nM. The half-life in data set [3] is > 120 min.

Take `C=CC(=O)N(C)CC/C=C/c1c(N)ncnc1-c1cc(F)cc(NC(=O)c2ccc(C3CC3)cc2)c1C`: in data set [5], the microsomal CLint amounted to 815 µL/min/mg.

Broadly, the bioavailability is dose-corrected exposure relative to a reference, in per cent. Low readings indicate little systemic uptake, high ones much systemic uptake. For `C=CC(=O)N1CC(Oc2c(N)ncnc2-c2cc(F)cc(NC(=O)c3ccc(C4CC4)cc3)c2C)C1`, in data set [6], the bioavailability came to 5%. The microsomal CLint in [5] came to 25 µL/min/mg. Further, the concentration at 5 h in [7] came out at 13 nM.

On to `C#CC(=O)N(C)CCOc1c(N)ncnc1-c1cc(F)cc(NC(=O)c2ccc(C3CC3)cc2F)c1C`, for which the remaining at 24 h in data set [1] came out at 0.1%. The compound further displayed a half-life in data set [3] of 96 min.

Take `C=CC(=O)N1CCC[C@H]1COc1c(N)ncnc1-c1cc(F)cc(NC(=O)c2ccc(C3CC3)cc2F)c1C`: the half-life in data set [3] is > 120 min.

Usually CL/F stands for clearance divided by bioavailability, as obtained after extravascular dosing. `C=CC(=O)N(C)C/C=C/c1c(N)ncnc1-c1cc(F)cc(NC(=O)c2ccc(C3CC3)cc2F)c1C` displayed a CL/F in data set [8] of 307 mL/min/kg. The half-life in data set [3] is > 120 min.

As for `C=CC(=O)NCCOc1c(N)ncnc1-c1cc(F)cc(NC(=O)c2ccc(C3CC3)cc2F)c1C`, the half-life in data set [3] was > 120 min.

Turning to `C=CC(=O)N(C)C/C=C/c1c(N)ncnc1-c1cc(F)cc(NC(=O)c2ccc(C3CC3)cc2)c1C`, the microsomal CLint in [5] came out at 924 µL/min/mg.

Compound `C=CC(=O)N1CC(Oc2c(N)ncnc2-c2cc(F)cc(NC(=O)c3ccc(C4CC4)cc3F)c2C)C1` showed a bioavailability in [6] of 51%. The half-life in data set [3] was 35 min.

`C/C=C/C(=O)N(C)CCOc1c(N)ncnc1-c1cc(F)cc(NC(=O)c2ccc(C3CC3)cc2F)c1C`: in [1], the remaining at 24 h was 95.8%.

Compound `C=CC(=O)N1CC[C@H]1COc1c(N)ncnc1-c1cc(F)cc(NC(=O)c2ccc(C3CC3)cc2F)c1C` yielded a half-life in data set [3] of 42 min.

For the compound `C=CC(=O)N1CCC(Oc2c(N)ncnc2-c2cc(F)cc(NC(=O)c3ccc(C4CC4)cc3)c2C)C1` (stereo not drawn), the microsomal CLint in data set [5] amounted to 135 µL/min/mg.

For orientation: Tmax means the time from dosing to the highest level. For the compound `C=CC(=O)N(C)CCOc1c(N)ncnc1-c1cc(F)cc(NC(=O)c2ccc(C3CC3)cc2F)c1C` [REMIBRUTINIB], the Tmax in data set [9] stood at 48 min; in data set [15], 18 min; in data set [18] it was 18 min. Further, the Cmax/dose in [10] was 53 nM; in [25] it was 19 nM; in [31], 148 nM. Besides, the figures for the Vd in [11], in data set [27] and in data set [29] were 1.4 L/kg, 1 L/kg and 1 L/kg, respectively. In addition, the half-life in data set [12] was 54 min; in [26] it was 30 min; in data set [33], 60 min; in [3] it was > 120 min. Moreover, the bioavailability is 29% in data set [13], 16% in data set [21] and 5% in data set [23]. Further, the microsomal CLint in data set [14] came to 325 µL/min/mg; in [30], 146 µL/min/mg; in data set [5], 33 µL/min/mg. Further, the results for the clearance in [16], in [17] and in data set [34] were 44 mL/min/kg, 29 mL/min/kg and 97 mL/min/kg, respectively. Moreover, in data set [19], the concentration at 0.5 h stood at 49.1 nM. For the same compound, the remaining at 24 h in [1] was found to be 68.5%. Besides, the concentration at 5 h in data set [20] was found to be 5.6 nM. For the same compound, the AUC/dose in [22] was determined as 225 nM·h; in data set [32], 54 nM·h; in data set [35] it was 55 nM·h. Further, the solubility thermodynamic is < 3 µg/mL in data set [24] and > 1500 µg/mL in [28]. Also, in data set [2], the logP is 2.9.
